Data as given in US9708244B2, “Coloring material and method for producing the same” (DAI NIPPON PRINTING CO., LTD., priority 2012, dated 2017).

Tests used:
Type in all cases: physicochemical
[1] = Evaluation of thermal decomposition temperature (TG-DTA); conditions: heating rate 5° C./min to 800° C., extrapolated temperature of TG curve peak
Method: As a reference, alumina was put in a quarts pan. Using horizontal differential thermogravimetric-differential thermal analyzer (TG-DTA) TG8120 (manufactured by Rigaku Corporation), they were measured at a heating rate of 5° C./min to 800° C. The extrapolated temperature of the peak of the thus-obtained TG curve was used as a decomposition point, and the temperature at the decomposition point was used as a thermal decomposition temperature. The thermal decomposition temperature can be used as an indicator of heat resistance.

[2] = Evaluation of weight reduction rate (TG-DTA, held at 230° C.); conditions: heated to 230° C. at 20° C./min, kept 60 minutes
Method: As a reference, alumina was put in a quarts pan. Using differential thermogravimetric analyzer (TG-DTA) TG8120 (manufactured by Rigaku Corporation), they were heated to 230° C. at a heating rate of 20° C./min. From the time when they reached 230° C., they were kept at the same temperature for 60 minutes and then measured for the weight reduction rate. The weight reduction rate is calculated by the following formula and can be used as an indicator of heat resistance. Weight reduction rate=(“weight before heating”−“weight after heating”)/“weight before heating”×100(%) <Evaluation of Dyeing Property> (1) Fabric Dyeing

[3] = Evaluation of color change in color materials (absorption spectrum in methanol); conditions: 10 mg in 100 mL methanol, diluted 20-fold, 1 cm cell, FIG. 1
Method: First, 10 mg of each of the color materials A and C obtained in Examples 1 and 3 was dissolved in 100 mL of methanol and diluted 20-fold, thereby obtaining a measurement solution. The absorption spectrum of the solution was measured by using a 1 cm quarts cell in spectrophotometer U-3500 manufactured by Hitachi, Ltd. Next, 10 mg of BB7 (monomer) was dissolved in 100 mL of methanol and diluted 20-fold, thereby obtaining a measurement solution as a control product. The absorption spectrum of the solution was measured by the same method as above.

Row | Structure (SMILES) | Thermal decomposition temperature [1] | Weight reduction rate (230° C. for 1 hr) [2] | Color change versus BB7 (absorption spectrum peak form) [3]
1 | CCN(CC)c1ccc(C(=C2C=CC(=[N+](CC)CC)C=C2)c2ccc(NCc3ccc(CNc4ccc(C(=C5C=CC(=[N+](CC)CC)C=C5)c5ccc(N(CC)CC)cc5)c5ccccc45)cc3)c3ccccc23)cc1 [Color material B] | 255 °C | −29.1% | 
2 | CCNc1ccc(C(=C2C=CC(=[N+](CC)CC)C=C2)c2ccc(N(CC)CC)cc2)c2ccccc12.Cc1ccc(S(=O)(=O)[O-])cc1 [Color material E] | 245 °C | −38.3% | 
3 | CCN(CC)c1ccc(C(=C2C=CC(=[N+](CC)CC)C=C2)c2ccc(NCc3ccc(CNc4ccc(C(=C5C=CC(=[N+](CC)CC)C=C5)c5ccc(N(CC)CC)cc5)c5ccccc45)cc3)c3ccccc23)cc1.[Cl-].[Cl-] [Color material A] | 247 °C | −28.9% | almost no change in color
4 | CCNc1ccc(C(=C2C=CC(=[N+](CC)CC)C=C2)c2ccc(N(CC)CC)cc2)c2ccccc12 [Color material F] | 236 °C | −33.8% | 
5 | CCNc1ccc(C(=C2C=CC(=[N+](CC)CC)C=C2)c2ccc(N(CC)CC)cc2)c2ccccc12.[Cl-] [Color material D, Basic Blue 7 (CI-42595)] | 218 °C | −40.2% | 
